In patent publication US11806342B2, “Diiodohydroxyquinoline for the treatment of clostridium difficile infection” (Purdue Research Foundation, priority 2019, dated 2023):
Values after ≈ are worked out from the molar mass of the structure shown. Where two headings read alike, the source gives them in different places.

Columns and labels:
[1] = tested on: C. difficile ATCC BAA-1870; assay: Initial screening of antiparasitic drugs, broth microdilution MIC; type: cell-based, Clostridium difficile; conditions: Clostridioides difficile
[2] = tested on: 2 clinical C. difficile strains; assay: Initial screening of antiparasitic drugs, both strains; type: cell-based, Clostridium difficile; conditions: Clostridioides difficile, both tested C. difficile strains, read-out: MIC (growth inhibitory concentration)
Protocol: C. difficile strains were grown anaerobically on brain heart infusion supplemented (BHIS) agar plates at 37° C. for 48 hours. Afterwards, a bacterial solution equivalent to 0.5 McFarland standard was prepared and diluted in (BHIS) broth to achieve a bacterial concentration of about 5×10^5 CFU/mL. Drugs were added and serially diluted along the plates. Plates were then, incubated anaerobically at 37° C. for 48 hours. MICs reported in Table (1) are the minimum concentrations of the drugs that could completely suppress the visual growth of bacteria.

[3] = tested on: C. difficile clinical isolates; assay: Checkerboard assay, summary over 9 tested strains; type: cell-based, Clostridium difficile
Protocol: Interactions between diiodohydroxyquinoline and the anticlostridial drugs (metronidazole and vancomycin) against Clostridium difficile clinical isolates. […] The fractional inhibitory concentration index (ΣFIC) was calculated for each interaction. Interactions where the ΣFIC index was ≤0.5 were categorized as synergistic (SYN).

[4] = tested on: C. difficile ATCC 43255; assay: Toxin A and B production inhibition, ELISA; type: cell-based, Clostridium difficile; conditions: for inhibition of total toxin production: 8 hours; for toxin inhibition (in words): C. difficile ATCC 43255, ¼×MIC and ½×MIC
Protocol: (§1) To investigate DIHQs toxin production inhibitory activity, toxin A and toxin B levels were measured as described previously. […] An aliquot from each tube was diluted and plated on BHIS agar plates and incubated anaerobically at 37° C. for 24 hours to detect the bacterial count. The total concentration of C. difficile toxin A and B was measured in the supernatant of each tube using enzyme linked immunosorbent assay (ELISA) kit (tgc BIOMICS, Dunwoody, GA) following the manufacturer's instructions. The (OD450-OD620) values, corresponding to the toxin concentration, were measured for DIHQ and control drugs.

[5] = tested on: C. difficile ATCC BAA-1870; assay: Toxin A and B production inhibition, ELISA; type: cell-based, Clostridium difficile; conditions: for inhibition of total toxin production: 8 hours; for toxin inhibition (in words): C. difficile ATCC BAA-1870, ¼×MIC and ½×MIC
Protocol: as §1

[6] = tested on: C. difficile NR-49277; assay: Toxin A and B production inhibition, ELISA; type: cell-based, Clostridium difficile; conditions: for inhibition of total toxin production: 8 hours; for toxin inhibition (in words): C. difficile NR-49277, ¼×MIC and ½×MIC
Protocol: as §1

[7] = tested on: Bifidobacterium longum; assay: MIC against normal gut microflora; type: cell-based; conditions: both strains
Protocol: (§2) In vitro antimicrobial evaluation of diiodohydroxyquinoline against normal microflora. The broth microdilution assay was utilized to determine the MICs of DIHQ and control antibiotics against commensal organisms that compose he human gut microflora, as described elsewhere. A bacterial solution equivalent to 0.5 McFarland standard was prepared and diluted in BHIS broth (for Bifidobacterium and Bacteroides) or in MRS broth (for Lactobacillus) to achieve a bacterial concentration of about 5×10^5 CFU/mL. Then, drugs were added and serially diluted along the plates.

[8] = tested on: species of Bacteroides and Bifidobacterium; assay: MIC against normal gut microflora; type: cell-based; conditions: species of Bacteroides and Bifidobacterium tested; for DIHQ except B. longum, B. adolescentis, B. angulatum; read-out: MIC (growth inhibitory concentration)
Protocol: as §2

[9] = tested on: Lactobacillus and Bacteroides strains; assay: MIC against normal gut microflora; type: cell-based; conditions: Phocaeicola dorei; Lactobacillus and Bacteroides strains tested, with the exception of B. dorei HM-719; read-out: MIC (growth inhibitory concentration)
Protocol: as §2

[10] = tested on: Bifidobacterium strains; assay: MIC against normal gut microflora; type: cell-based; conditions: Bifidobacterium strains tested
Protocol: as §2

[11] = C. difficile ATCC BAA-1870, ¼×MIC
[12] = C. difficile ATCC BAA-1870, ½×MIC

Oc1c(I)cc(I)c2cccnc12 [DIHQ, 5,7-diiodoquinolin-8-ol]
MIC ([1]; initial screening, C. difficile ATCC BAA 1870, read-out: MIC): 1 µg/mL (≈ 2.52 µM) | MIC [2]: 0.5 to 1 µg/mL (≈ 1.26 to 2.52 µM) | tested strains with a synergistic relationship ([3]; DIHQ combined with metronidazole): 7 out of 9 | tested strains with a synergistic interaction ([3]; DIHQ combined with vancomycin): 5 out of 9 | inhibition of total toxin production ([4]; C. difficile ATCC 43255, ¼×MIC): ~8% | inhibition of total toxin production ([4]; C. difficile ATCC 43255, ½×MIC): ~28.5% | inhibition of total toxin production [5, 11]: 17.8% | inhibition of total toxin production [5, 12]: 27% | inhibition of total toxin production ([6]; C. difficile NR-49277, ¼×MIC): ~31.8% | inhibition of total toxin production ([6]; C. difficile NR-49277, ½×MIC): ~38.9% | MIC [7]: 64 to 128 µg/mL (≈ 161 to 322 µM) | MIC [8]: > 128 µg/mL

CCc1c(Cl)c(O)c(Cl)c(O)c1C(=O)O[C@H]1[C@H](O)[C@H](OC)[C@H](OC/C2=C\C=C\C[C@H](O)/C(C)=C/[C@H](CC)[C@@H](O[C@@H]3OC(C)(C)[C@@H](OC(=O)C(C)C)[C@H](O)[C@@H]3O)/C(C)=C/C(C)=C/C[C@@H]([C@@H](C)O)OC2=O)O[C@@H]1C [Fidaxomicin, fidaxomicin]
inhibition of total toxin production ([4]; C. difficile ATCC 43255, ¼×MIC): 14.3% | inhibition of total toxin production ([4]; C. difficile ATCC 43255, ½×MIC): 37% | inhibition of total toxin production [5, 11]: 31.9% | inhibition of total toxin production [5, 12]: 46.2% | inhibition of total toxin production ([6]; C. difficile NR-49277, ¼×MIC): 58.8% | inhibition of total toxin production ([6]; C. difficile NR-49277, ½×MIC): 67.4% | MIC [9]: > 128 µg/mL

Cc1ncc([N+](=O)[O-])n1CCO [Metronidazole, metronidazole]
toxin inhibition (in words) [4]: No toxin inhibition | toxin inhibition (in words) [5]: No toxin inhibition | toxin inhibition (in words) [6]: No toxin inhibition | MIC [8]: ≤ 2 µg/mL

CN[C@H](CC(C)C)C(=O)N[C@H]1C(=O)N[C@@H](CC(N)=O)C(=O)N[C@H]2C(=O)N[C@H]3C(=O)N[C@H](C(=O)N[C@H](C(=O)O)c4cc(O)cc(O)c4-c4cc3ccc4O)[C@H](O)c3ccc(c(Cl)c3)Oc3cc2cc(c3O[C@@H]2O[C@H](CO)[C@@H](O)[C@H](O)[C@H]2O[C@H]2C[C@](C)(N)[C@H](O)[C@H](C)O2)Oc2ccc(cc2Cl)[C@H]1O [Vancomycin, vancomycin]
MIC [1]: 1 µg/mL (≈ 0.69 µM) | toxin inhibition (in words) [4]: No toxin inhibition | toxin inhibition (in words) [5]: No toxin inhibition | toxin inhibition (in words) [6]: No toxin inhibition | MIC [10]: ≤ 1 µg/mL
